Measured values from the NIST ThermoML archive (doi:10.1021/je060271a).
“And” between values parts separate entries of the source, which are not always exact repeats. Identical values can stand only once.

Settings: Liquid, Vibrating tube method

CCCCCCCC(=O)OCC(COC(=O)CCCCCCC)(COC(=O)CCCCCCC)COC(=O)CCCCCCC [pentaerythritol tetraoctanoate]
Settings | mass density
303.15 K, 32860 kPa | 974.3 kg/m3
303.15 K, 32891 kPa | 974.3 kg/m3
303.15 K, 32922 kPa | 974.2 kg/m3
303.15 K, 32960 kPa | 974.3 kg/m3
303.15 K, 32992 kPa | 974.4 kg/m3
303.15 K, 33022 kPa | 974.3 kg/m3
303.15 K, 33060 kPa | 974.4 kg/m3
303.15 K, 33092 kPa | 974.4 kg/m3
303.15 K, 33129 kPa | 974.4 kg/m3
303.15 K, 33161 kPa | 974.4 kg/m3
303.15 K, 33192 kPa | 974.4 kg/m3
303.15 K, 33231 kPa | 974.5 kg/m3
303.15 K, 33263 kPa | 974.4 kg/m3
303.15 K, 33295 kPa | 974.5 kg/m3
303.15 K, 33327 kPa | 974.5 kg/m3
303.15 K, 33366 kPa | 974.6 kg/m3
303.15 K, 33398 kPa | 974.6 kg/m3
303.15 K, 33437 kPa | 974.6 kg/m3
303.15 K, 33469 kPa | 974.5 kg/m3
303.15 K, 33502 kPa | 974.6 kg/m3
303.15 K, 33541 kPa | 974.8 kg/m3
303.15 K, 33574 kPa | 974.6 kg/m3
303.15 K, 33607 kPa | 974.6 kg/m3
303.15 K, 33647 kPa | 974.7 kg/m3
303.15 K, 33682 kPa | 974.8 kg/m3
303.15 K, 33716 kPa | 974.7 kg/m3
303.15 K, 33760 kPa | 974.6 kg/m3
303.15 K, 33796 kPa | 974.8 kg/m3
303.15 K, 33832 kPa | 974.9 kg/m3
303.15 K, 33864 kPa | 974.9 kg/m3
303.15 K, 33892 kPa | 974.7 kg/m3
303.15 K, 33915 kPa | 974.9 kg/m3
303.15 K, 33938 kPa | 974.8 kg/m3
303.15 K, 33965 kPa | 975 kg/m3
303.15 K, 33988 kPa | 974.9 kg/m3
303.15 K, 34016 kPa | 974.8 kg/m3
303.15 K, 34039 kPa | 974.9 kg/m3
303.15 K, 34062 kPa | 975 kg/m3
303.15 K, 34092 kPa | 974.9 kg/m3
303.15 K, 34116 kPa | 975 kg/m3
303.15 K, 34141 kPa | 974.9 kg/m3
303.15 K, 34166 kPa | 975 kg/m3
303.15 K, 34196 kPa | 974.9 kg/m3
303.15 K, 34222 kPa | 975 kg/m3
303.15 K, 34255 kPa | 975.2 kg/m3
303.15 K, 34284 kPa | 975.1 kg/m3
303.15 K, 34313 kPa | 975 kg/m3
303.15 K, 34325 kPa | 975 kg/m3
303.15 K, 34326 kPa | 975.1 kg/m3
303.15 K, 34328 kPa | 975.1 kg/m3
303.15 K, 34329 kPa | 975.2 kg/m3
303.15 K, 34330 kPa | 975.2 kg/m3
303.15 K, 34332 kPa | 975.2 kg/m3
303.15 K, 34333 kPa | 975.1 kg/m3 and 975.2 kg/m3
303.15 K, 34335 kPa | 975.1 kg/m3
303.15 K, 34336 kPa | 975 kg/m3
303.15 K, 34337 kPa | 975 kg/m3
303.15 K, 34339 kPa | 975 kg/m3
303.15 K, 34340 kPa | 975 kg/m3 and 975.1 kg/m3
303.15 K, 34342 kPa | 975 kg/m3
303.15 K, 34343 kPa | 975 kg/m3
303.15 K, 34349 kPa | 975.1 kg/m3
303.15 K, 34350 kPa | 975 kg/m3
303.15 K, 34361 kPa | 975.2 kg/m3
303.15 K, 34371 kPa | 975.2 kg/m3
303.15 K, 34374 kPa | 975 kg/m3
303.15 K, 34375 kPa | 975.2 kg/m3
303.15 K, 34377 kPa | 975.2 kg/m3
303.16 K, 3295.7 kPa | 957.4 kg/m3
303.16 K, 3309.7 kPa | 957.5 kg/m3
303.16 K, 3323.8 kPa | 957.4 kg/m3
303.16 K, 3335.4 kPa | 957.5 kg/m3
303.16 K, 3349.9 kPa | 957.5 kg/m3
303.16 K, 3364.5 kPa | 957.5 kg/m3
303.16 K, 3376.5 kPa | 957.4 kg/m3
303.16 K, 3390.8 kPa | 957.6 kg/m3
303.16 K, 3405.4 kPa | 957.4 kg/m3
303.16 K, 3418 kPa | 957.6 kg/m3
303.16 K, 3432.9 kPa | 957.5 kg/m3
303.16 K, 3447.8 kPa | 957.5 kg/m3
303.16 K, 3460.5 kPa | 957.5 kg/m3
303.16 K, 3475.7 kPa | 957.5 kg/m3
303.16 K, 3490.8 kPa | 957.6 kg/m3
303.16 K, 3504 kPa | 957.5 kg/m3
303.16 K, 3519.7 kPa | 957.6 kg/m3
303.16 K, 3535.3 kPa | 957.7 kg/m3
303.16 K, 3548.8 kPa | 957.5 kg/m3
303.16 K, 3564.8 kPa | 957.5 kg/m3
303.16 K, 3593.9 kPa | 957.6 kg/m3
303.16 K, 3609.8 kPa | 957.6 kg/m3
303.16 K, 3626.1 kPa | 957.6 kg/m3
303.16 K, 3640.3 kPa | 957.7 kg/m3
303.16 K, 3656.9 kPa | 957.6 kg/m3
303.16 K, 3671 kPa | 957.7 kg/m3
303.16 K, 3688.1 kPa | 957.8 kg/m3
323.14 K, 32674 kPa | 960.8 kg/m3
323.14 K, 32807 kPa | 961 kg/m3
323.15 K, 104.51 kPa | 940.7 kg/m3
323.15 K, 104.52 kPa | 940.7 kg/m3 and 940.6 kg/m3
323.15 K, 105.05 kPa | 940.7 kg/m3
323.15 K, 105.56 kPa | 940.7 kg/m3
323.15 K, 107.29 kPa | 940.7 kg/m3
323.15 K, 110.42 kPa | 940.7 kg/m3
323.15 K, 119.65 kPa | 940.6 kg/m3
323.15 K, 137.02 kPa | 940.6 kg/m3
323.15 K, 166.4 kPa | 940.7 kg/m3
323.15 K, 245.49 kPa | 940.7 kg/m3
323.15 K, 268.79 kPa | 940.8 kg/m3
323.15 K, 281.82 kPa | 940.8 kg/m3
323.15 K, 299.57 kPa | 941 kg/m3
323.15 K, 315.89 kPa | 940.9 kg/m3
323.15 K, 333.79 kPa | 940.8 kg/m3
323.15 K, 351.71 kPa | 940.9 kg/m3
323.15 K, 362.82 kPa | 940.9 kg/m3
323.15 K, 374.29 kPa | 940.8 kg/m3
323.15 K, 388.88 kPa | 941 kg/m3
323.15 K, 401.56 kPa | 941 kg/m3
323.15 K, 413.39 kPa | 941 kg/m3
323.15 K, 427.29 kPa | 940.9 kg/m3
323.15 K, 439.11 kPa | 940.9 kg/m3
323.15 K, 449.2 kPa | 941 kg/m3
323.15 K, 461 kPa | 940.9 kg/m3
323.15 K, 471.78 kPa | 941 kg/m3
323.15 K, 482.73 kPa | 940.9 kg/m3
323.15 K, 496.63 kPa | 940.9 kg/m3
323.15 K, 509.14 kPa | 940.9 kg/m3
323.15 K, 522.17 kPa | 941 kg/m3
323.15 K, 538.51 kPa | 941.1 kg/m3
323.15 K, 552.59 kPa | 941 kg/m3
323.15 K, 567.71 kPa | 940.9 kg/m3
323.15 K, 586.82 kPa | 941 kg/m3
323.15 K, 621.05 kPa | 941 kg/m3
323.15 K, 643.29 kPa | 941.1 kg/m3
323.15 K, 663.11 kPa | 941 kg/m3
323.15 K, 684.47 kPa | 941.1 kg/m3
323.15 K, 711.74 kPa | 941 kg/m3
323.15 K, 735.9 kPa | 941.1 kg/m3
323.15 K, 761.44 kPa | 941.1 kg/m3
323.15 K, 788.7 kPa | 941.2 kg/m3
323.15 K, 806.43 kPa | 941.1 kg/m3
323.15 K, 824.32 kPa | 941.2 kg/m3
323.15 K, 839.78 kPa | 941.2 kg/m3
323.15 K, 855.59 kPa | 941.1 kg/m3
323.15 K, 972.85 kPa | 941.4 kg/m3
323.15 K, 994.21 kPa | 941.3 kg/m3
323.15 K, 1021.5 kPa | 941.4 kg/m3
323.15 K, 1039.6 kPa | 941.3 kg/m3
323.15 K, 1067.7 kPa | 941.3 kg/m3
